The test concerns Human immunodeficiency virus 1. Kind of test: Antiviral activity against HIV1. It counts as functional, organism-based. To be noted: Human immunodeficiency virus 1, read-out: pIC50 (converted).

With `N#Cc1c(N)cccc1S(=O)(=O)c1cccc(Cl)c1`, the IC50 was 0.59 µM.
Turning to `Cc1cc(Cl)cc(S(=O)(=O)c2cccc(N)c2C#N)c1`, the IC50 is 0.03 µM.
The value for `N#Cc1c(N)cccc1[S+]([O-])c1cc(Cl)ccc1Cl` (stereo not drawn) was 9.84 µM.
Regarding `N#Cc1ccc(S(=O)(=O)c2cccc(N)c2C#N)cc1`, the IC50 was 80 µM.
Regarding `COc1ccccc1Sc1cccc(N)c1C#N`, the IC50 was 4.29 µM.
For `N#Cc1c(N)cccc1[S+]([O-])c1cccc(C(F)(F)F)c1` (stereo not drawn), the IC50 was 40 µM.
In the case of `COc1cc(C)cc(Sc2cccc(N)c2C#N)c1` it was 2 µM; in that of `Cc1ccccc1[S+]([O-])c1cccc(N)c1C#N` (stereo not drawn), 92.9 µM; in that of `COc1ccccc1[S+]([O-])c1cccc(N)c1C#N` (stereo not drawn), 4.8 µM.
As to `N#Cc1cccc([S+]([O-])c2cccc(N)c2C#N)c1` (stereo not drawn), the IC50 was 14.2 µM.
On to `N#Cc1c(N)cccc1S(=O)(=O)c1ccccc1Br`, for which the IC50 was 5 µM.
Regarding `N#Cc1cccc(Sc2cccc(N)c2C#N)c1`, the IC50 was 1.73 µM.
In the case of `N#Cc1c(N)cccc1Sc1cccc(C(F)(F)F)c1` it was 12.8 µM; in that of `N#Cc1c(N)cccc1S(=O)(=O)c1cccc(Br)c1`, 0.539 µM.
For the compound `N#Cc1ccccc1[S+]([O-])c1cccc(N)c1C#N` (stereo not drawn), the IC50 was 3.9 µM.
On to `Cc1cc(C)cc(Sc2cccc(N)c2C#N)c1`, for which the IC50 is 0.429 µM.
On to `Cc1cccc(Sc2cccc(N)c2C#N)c1`, for which the IC50 is 6.09 µM.
The value for `N#Cc1ccccc1S(=O)(=O)c1cccc(N)c1C#N` was 5.4 µM.
Consider `Cc1cc(C)cc(S(=O)(=O)c2cccc(N)c2C#N)c1`, for which the IC50 is 0.01 µM.
The value for `Cc1ccccc1Sc1cccc(N)c1C#N` was 16 µM; that for `N#Cc1cccc(S(=O)(=O)c2cccc(N)c2C#N)c1` was 2.4 µM.
As for `N#Cc1c(N)cccc1[S+]([O-])c1ccccc1Br` (stereo not drawn), the IC50 was 39.2 µM.
Turning to `N#Cc1c(N)cccc1Sc1ccccc1Cl`, the IC50 was 4.1 µM.
The value for `CCOc1cc(C)cc(S(=O)(=O)c2cccc(N)c2C#N)c1` was 0.06 µM.
Regarding `Cc1ccc([S+]([O-])c2cccc(N)c2C#N)cc1` (stereo not drawn), the IC50 was 49 µM.
As to `N#Cc1c(N)cccc1S(=O)(=O)c1cc(Cl)ccc1Cl`, the IC50 is 0.3 µM.
Regarding `N#Cc1c(N)cccc1S(=O)(=O)c1ccccc1Cl`, the IC50 is 4.1 µM.
In the case of `N#Cc1c(N)cccc1S(=O)(=O)c1cccc(C(F)(F)F)c1` it was 3.5 µM; in that of `N#Cc1c(N)cccc1S(=O)(=O)c1ccc(Cl)cc1`, 3 µM; in that of `N#Cc1c(N)cccc1Sc1cccc(F)c1`, 9.79 µM.
Regarding `COc1cccc(Sc2cccc(N)c2C#N)c1`, the IC50 is 6 µM.
In the case of `N#Cc1c(N)cccc1Sc1ccccc1` it was 14.6 µM; in that of `N#Cc1c(N)cccc1Sc1cccc(N)c1`, 31.5 µM.
Turning to `N#Cc1c(N)cccc1S(=O)(=O)c1ccccc1F`, the IC50 was 3 µM.
On to `Cc1cccc([S+]([O-])c2cccc(N)c2C#N)c1` (stereo not drawn), for which the IC50 was 29.2 µM.
For `Cc1ccc(S(=O)(=O)c2cccc(N)c2C#N)cc1`, the IC50 is 9.51 µM.
For `Cc1cc(C)cc([S+]([O-])c2cccc(N)c2C#N)c1` (stereo not drawn), the IC50 was 0.34 µM.
As for `Cc1ccccc1S(=O)(=O)c1cccc(N)c1C#N`, the IC50 is 2.3 µM.
For the compound `Cc1cccc(S(=O)(=O)c2cccc(N)c2C#N)c1`, the IC50 was 0.4 µM.
Consider `N#Cc1c(N)cccc1Sc1ccccc1Br`, for which the IC50 was 30 µM.
For the compound `COc1cc(Sc2cccc(N)c2C#N)cc(C(F)(F)F)c1`, the IC50 was 5.11 µM.
Take `COc1cccc([S+]([O-])c2cccc(N)c2C#N)c1` (stereo not drawn): the IC50 is 16 µM.
In the case of `COc1ccc(S(=O)(=O)c2cccc(N)c2C#N)cc1`, the IC50 is 25 µM.
On to `COc1cc(C(F)(F)F)cc(S(=O)(=O)c2cccc(N)c2C#N)c1`, for which the IC50 is 0.09 µM.
Turning to `COc1cc(C)cc(S(=O)(=O)c2cccc(N)c2C#N)c1`, the IC50 is 0.05 µM.
`COc1cccc(S(=O)(=O)c2cccc(N)c2C#N)c1`: the IC50 is 0.899 µM.
Regarding `N#Cc1c(N)cccc1S(=O)(=O)c1ccccc1`, the IC50 was 2 µM.
Regarding `COc1ccccc1S(=O)(=O)c1cccc(N)c1C#N`, the IC50 is 0.6 µM.
For `COc1cc([S+]([O-])c2cccc(N)c2C#N)cc(C(F)(F)F)c1` (stereo not drawn), the IC50 is 2.07 µM.
As to `N#Cc1c(N)cccc1Sc1cccc(Cl)c1`, the IC50 is 7.4 µM.
The value for `CCCOc1cc(C)cc(S(=O)(=O)c2cccc(N)c2C#N)c1` was 0.06 µM; that for `Cc1cc(Cl)cc([S+]([O-])c2cccc(N)c2C#N)c1` (stereo not drawn) was 0.32 µM.
As to `N#Cc1c(N)cccc1S(=O)(=O)c1cc(Cl)cc(Cl)c1`, the IC50 was 0.07 µM.
As to `CCCCOc1cc(C)cc(S(=O)(=O)c2cccc(N)c2C#N)c1`, the IC50 was 0.6 µM.
Consider `N#Cc1c(N)cccc1[S+]([O-])c1cccc(Br)c1` (stereo not drawn), for which the IC50 was 0.08 µM.
In the case of `Cc1cc(Br)cc(S(=O)(=O)c2cccc(N)c2C#N)c1` it was 0.02 µM; in that of `N#Cc1c(N)cccc1[S+]([O-])c1ccc(Br)cc1` (stereo not drawn), 20.2 µM.
As for `Cc1cc(Cl)cc(Sc2cccc(N)c2C#N)c1`, the IC50 is 1.76 µM.
For `N#Cc1c(N)cccc1Sc1cccc(Br)c1`, the IC50 is 5.11 µM.
For the compound `N#Cc1ccc(Sc2cccc(N)c2C#N)cc1`, the IC50 is 43.8 µM.
For `Cc1cc(O)cc(S(=O)(=O)c2cccc(N)c2C#N)c1`, the IC50 was 0.429 µM.
As for `N#Cc1c(N)cccc1S(=O)(=O)c1ccc(Br)cc1`, the IC50 was 20 µM.
As to `N#Cc1c(N)cccc1S(=O)(=O)c1cccc(F)c1`, the IC50 is 3 µM.

Source of the values: ChEMBL document CHEMBL1137741, “QSAR models for 2-amino-6-arylsulfonylbenzonitriles and congeners HIV-1 reverse transcriptase inhibitors based on linear and nonlinear regression methods” (Eur J Med Chem, 2009).
